In one assay the target is T1, HIV protease (Human immunodeficiency virus type 1 group M subtype B, UniProt P04585).
T1 construct: HIV protease is diluted in the assay buffer to a final enzyme concentration of 12.3 nanomolar, based on a molecular weight of 10,780
Description: HIV protease enzyme assay (fluorescence, substrate 2-aminobenzoyl-lle-Nle-Phe(p-NO2)-Gin-ArgNH2). As to conditions: 10 microM; HIV protease 12.3 nanomolar; substrate 80 μM; pH 6.4. The class given is biochemical. The method, then:
The compounds of the present invention are effective HIV protease inhibitors. […] The calculated IC50 (inhibiting concentration 50%, i.e., the concentration at which the inhibitor compound reduces enzyme activity by 50%) values are shown in Table 1. The enzyme method is described below. The substrate is 2-aminobenzoyl-lle-Nle-Phe(p-NO2)-Gin-ArgNH2. The positive control is MVT-101 [Miller, M. et al, Science, 246, 1149 (1989)]. The assay conditions are as follows:
Assay buffer: 20 mM sodium phosphate, pH 6.4
The above described substrate is dissolved in DMSO, then diluted 10 fold in assay buffer. Final substrate concentration in the assay is 80 μM. HIV protease is diluted in the assay buffer to a final enzyme concentration of 12.3 nanomolar, based on a molecular weight of 10,780.
The final concentration of DMSO is 14% and the final concentration of glycerol is 18%. The test compound is dissolved in DMSO and diluted in DMSO to 10×the test concentration; 10 μL of the enzyme preparation is added, the materials mixed and then the mixture is incubated at ambient temperature for 15 minutes. The enzyme reaction is initiated by the addition of 40 μL of substrate. The increase in fluorescence is monitored at 4 time points (0, 8, 16 and 24 minutes) at ambient temperature. Each assay is carried out in duplicate wells.
By inhibition is commonly meant the relative decrease from the control value, in per cent. High values mean strong suppression, low ones little suppression. Regarding `CC(C)CCN1C[C@@H](O)[C@H](Cc2ccccc2)NC(=O)CCSCCCCCNC1=O` [Compound 5], the inhibition at 10 µM turned out to be 20%. For `CC(C)CCN1C[C@@H](O)[C@H](Cc2ccccc2)NC(=O)[C@@H](NC(=O)OCc2ccccc2)CSCCCCCCC1=O` [Compound 10], the inhibition at 10 µM is 47%. Still for that read-out and setting: the figure for `CC(C)CCN1C[C@@H](O)[C@H](Cc2ccccc2)NC(=O)CCS(=O)(=O)CCCCCNC1=O` [Compound 17, 1-Thia-5,9,11-Triazacyclohexadecane, 7-Hydroxy-9-(3-Methylbutyl)-4,10-Dioxo-6-(Phenylmethyl)-, 1,1-Dioxide, Cis-] is 21%; for `CC(C)CCN1C[C@@H](O)[C@H](Cc2ccccc2)NC(=O)[C@@H](NC(=O)OCc2ccccc2)CC(=O)NCCCNC1=O` [Compound 20, Carbamic Acid, [5-Hydroxy-3-(3-Methylbutyl)-2,8,11-Trioxo-5-(Phenylmethyl)-1,3,7,12-Tetraazacyclopentadec-9-YL]-, Phenylmethylester, (98-Trans)-] it is 16%.

The same assay, now with this note: HIV protease 12.3 nanomolar; substrate 80 μM; pH 6.4; ambient temperature; read-out: IC50 (inhibiting concentration 50%).
In the case of `CC(C)CCN1C[C@@H](O)[C@H](Cc2ccccc2)NC(=O)[C@@H](NC(=O)c2ccc3ccccc3n2)CSCCCCCNC1=O` [Compound 9], the IC50 stood at 510 nM.

For `CC(C)CCN1C[C@@H](O)[C@H](Cc2ccccc2)NC(=O)[C@@H](NC(=O)OCc2ccccc2)CSCCCCCNC1=O` [Compound 2], the IC50 is 570 nM. `CC(C)CCN1C[C@@H](O)[C@H](Cc2ccccc2)NC(=O)[C@@H](NC(=O)OCc2ccccc2)CSCCCC(C)(C)NC1=O` [Compound 8]: the IC50 was determined as 140 nM. For the compound `CC(C)CCN1C[C@@H](O)[C@H](Cc2ccccc2)NC(=O)[C@@H](NC(=O)OCc2ccccc2)C(C)(C)SCCCCCNC1=O` [Compound 7], the IC50 was found to be 1260 nM. Take `CC(=O)N[C@H]1CSCCCCCNC(=O)N(CCC(C)C)C[C@@H](O)[C@H](Cc2ccccc2)NC1=O` [Compound 4]: the IC50 came out at 1600 nM. Same read-out and setting: for `CC(C)CCN1C[C@@H](O)[C@H](Cc2ccccc2)NC(=O)[C@@H](NC(=O)OCc2ccccc2)CSCCCCCCNC1=O` [Compound 3] the value was 1730 nM; for `CC(C)CCN1C[C@@H](O)[C@H](Cc2ccccc2)NC(=O)[C@@H](NC(=O)OCc2ccccc2)CSCCCCC(C)(C)NC1=O` [Compound 6], 220 nM; for `CC(C)CCN1C[C@@H](O)[C@H](Cc2ccccc2)NC(=O)[C@@H](NC(=O)OCc2ccccc2)CSCCCCNC1=O` [Compound 1], 340 nM.

These data come from patent US5830888A, “Macrocyclic retroviral protease inhibitors” (Monsanto Company, priority 1995, dated 1998).
